From US20060263802A1 (priority 2003, published 2006)

Experiments:
Type in all cases: binding
[1] = tested on: human monoclonal antibody CR57
[2] = tested on: human monoclonal antibody CRJA
[3] = tested on: human monoclonal antibody CRJB
[4] = tested on: human monoclonal antibody CRJB; remark: listed apart in the source
[5] = tested on: human monoclonal antibody CR57; remark: listed apart in the source
[6] = tested on: human monoclonal antibody CRJA; remark: listed apart in the source

Row | Sequence | Binding of human monoclonal antibody CR57 to linear peptide (PEPSCAN-ELISA signal) [1] | Binding of CRJA to looped/cyclic peptide (PEPSCAN-ELISA signal) [2] | Binding of human monoclonal antibody CRJB to linear peptide (PEPSCAN-ELISA signal) [3] | Binding of CRJB to looped/cyclic peptide (PEPSCAN-ELISA signal) [4] | Binding of CR57 to looped/cyclic peptide (PEPSCAN-ELISA signal) [5] | Binding of human monoclonal antibody CRJA to linear peptide (PEPSCAN-ELISA signal) [6] | Binding of CR57 to linear peptide (PEPSCAN-ELISA signal) [1] | Binding of CRJA (10 μg/ml) to looped/cyclic peptide (PEPSCAN-ELISA signal) [2] | Binding of CRJB to linear peptide (PEPSCAN-ELISA signal) [3] | Binding of CRJB (10 μg/ml) to looped/cyclic peptide (PEPSCAN-ELISA signal) [4] | Binding of CR57 (10 μg/ml) to looped/cyclic peptide (PEPSCAN-ELISA signal) [5] | Binding of CRJA to linear peptide (PEPSCAN-ELISA signal) [6] | Binding of CRJA (10 μg/ml) to looped/cyclic peptide (PEPSCAN-ELISA) [2] | Binding of CRJB (10 μg/ml) to looped/cyclic peptide (PEPSCAN-ELISA) [4] | Binding of CR57 (10 μg/ml) to looped/cyclic peptide (PEPSCAN-ELISA) [5] | binding of antibody CR57 to linear peptide (PEPSCAN OD) [1] | strength of binding of CR57 (OD value compared with the other peptides / twice the average value) [1]
1 | VFKDGDEAEDFVEVH | 100 | 104 | 106 | 125 | 168 | 125 | – | – | – | – | – | – | – | – | – | – | –
2 | LKVGYILAIKMNGFT | – | – | – | – | – | – | 78 | 76 | 112 | 74 | 58 | 68 | – | – | – | – | –
3 | DGNVLIPEMQSSLLQ | – | – | – | – | – | – | 123 | – | 134 | – | – | 93 | 107 | 104 | 114 | – | –
4 | EHLVVEELVRKREEC | – | – | – | – | – | – | 82 | – | 114 | – | – | 76 | 93 | 83 | 89 | – | –
5 | CDIFTNSRGKRASKG | – | – | – | – | – | – | 42 | 101 | 104 | 90 | 1 | 133 | – | – | – | – | –
6 | DFVEVHLPDVHNQVS | 96 | 113 | 141 | 92 | 113 | 92 | – | – | – | – | – | – | – | – | – | – | –
7 | KLCGVLGLRLMDGTW | – | – | – | – | – | – | 3152 | – | 132 | – | – | 96 | 82 | 68 | 120 | bound | most prominent
8 | SPSVADLDPYDRSLH | – | – | – | – | – | – | 59 | 51 | 114 | 63 | 76 | 72 | – | – | – | – | –
9 | TIFNKTLMEADAHYK | – | – | – | – | – | – | 107 | – | 123 | – | – | 100 | 96 | 91 | 114 | – | –
10 | KTTKESLVIISPSVA | – | – | – | – | – | – | 101 | 104 | 112 | 75 | 111 | 82 | – | – | – | – | –
11 | WKMAGDPRYEESLHN | – | – | – | – | – | – | 69 | 90 | 101 | 77 | 96 | 86 | – | – | – | – | –
